Tests used:
Experiment in all cases: relative viability (nuclei count vs DMSO), 5 days (fraction); higher = more cells survive
[1] = compound: CN(C)C[C@@H]1CCn2cc(c3ccccc32)C2=C(C(=O)NC2=O)c2cn(c3ccccc23)CCO1 [Ruboxistaurin] + N=C(N)NC(=N)NCCc1ccccc1 [Phenformin] (partner 250 µM)
In short: (§1)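 Relative viability divides the nuclei count in treated wells by that in vehicle wells. Lung cancer cell lines were seeded in 1536-well plates, dosed by pin tool the next day, and fixed and stained after 5 days in one step with final 0.05% Triton X-100, 1% formaldehyde and 1 ug/ml Hoechst. Dosing was a single drug or a fixed anchor-drug dose plus five library-drug doses (not always all listed) in √10 steps, and values are medians of duplicate plates imaged at 4×.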

[2] = compound: CN(C)C[C@@H]1CCn2cc(c3ccccc32)C2=C(C(=O)NC2=O)c2cn(c3ccccc23)CCO1 [Ruboxistaurin] + C[C@@H](Oc1cc(-c2cnn(C3CCNCC3)c2)cnc1N)c1c(Cl)ccc(F)c1Cl [Crizotinib] (partner 1 µM)
In short: as §1

[3] = compound: CN(C)C[C@@H]1CCn2cc(c3ccccc32)C2=C(C(=O)NC2=O)c2cn(c3ccccc23)CCO1 [Ruboxistaurin] + COc1cc2c(Oc3ccc(NC(=O)C4(C(=O)Nc5ccc(F)cc5)CC4)cc3F)ccnc2cc1OCCCN1CCOCC1 [Foretinib] (partner 0.25 µM)
In short: as §1

[4] = compound: CN(C)C[C@@H]1CCn2cc(c3ccccc32)C2=C(C(=O)NC2=O)c2cn(c3ccccc23)CCO1 [Ruboxistaurin] + C[C@]1(O)C[C@@H](c2nc(-c3ccc4ccc(-c5ccccc5)nc4c3)c3c(N)nccn32)C1 [Linsitinib] (partner 1 µM)
In short: as §1

[5] = compound: CN(C)C[C@@H]1CCn2cc(c3ccccc32)C2=C(C(=O)NC2=O)c2cn(c3ccccc23)CCO1 [Ruboxistaurin]
In short: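 On vehicle-anchored 1536-well plates, lung cancer cell lines held overnight at 37 °C were pinned with five library-drug doses (not always all listed) spaced by √10. With no medium change over 5 days, they were then fixed, permeabilised and Hoechst-stained in one step and imaged at 4×. MetaXpress counted nuclei, and viability is the median across plates of treated-well over vehicle-well nuclei. Acceptance needed control CV below 25% and at least one doubling.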

Cell Line | relative viability ([1]; first compound 0.08 µM) | relative viability ([1]; first compound 0.8 µM) | relative viability ([1]; first compound 2.53 µM) | relative viability ([1]; first compound 8 µM) | relative viability ([2]; first compound 0.08 µM) | relative viability ([2]; first compound 0.8 µM) | relative viability ([2]; first compound 2.53 µM) | relative viability ([2]; first compound 8 µM) | relative viability ([3]; first compound 0.08 µM) | relative viability ([3]; first compound 0.8 µM) | relative viability ([3]; first compound 2.53 µM) | relative viability ([3]; first compound 8 µM) | relative viability ([4]; first compound 0.08 µM) | relative viability ([4]; first compound 0.8 µM) | relative viability ([4]; first compound 2.53 µM) | relative viability ([4]; first compound 8 µM) | relative viability ([5]; 0.08 µM) | relative viability ([5]; 0.8 µM) | relative viability ([5]; 2.53 µM) | relative viability ([5]; 8 µM)
NCI-H1651 | 0.342 | 0.312 | 0.332 | 0.319 | 0.882 | 0.883 | 0.911 | 0.911 | 1.04 | 0.772 | 0.794 | 0.841 | 1.04 | 0.897 | 0.93 | 0.85 | 1.02 | 0.983 | 1 | 1.03
201T | 0.49 | 0.433 | 0.449 | 0.426 | 1.05 | 0.972 | 1.08 | 1.05 | 1.17 | 1.02 | 1.19 | 0.995 | 1.03 | 0.874 | 1.06 | 0.891 | 1.03 | 0.98 | 1.01 | 0.973
NCI-H3122 | 0.409 | 0.372 | 0.413 | 0.379 | 0.28 | 0.211 | 0.298 | 0.225 | 0.938 | 0.982 | 1.01 | 0.975 | 1.03 | 0.978 | 1.03 | 1.01 | 0.98 | 0.963 | 1.01 | 1.07
A549 | 0.199 | 0.162 | 0.221 | 0.175 | 0.751 | 0.631 | 0.862 | 0.679 | 1.04 | 0.935 | 1.06 | 0.962 | 0.685 | 0.562 | 0.61 | 0.458 | 1.05 | 0.9 | 1 | 0.83
NCI-H727 | 0.565 | – | 0.401 | 0.474 | 0.789 | 0.696 | 0.693 | 0.745 | 1.15 | 0.718 | 0.84 | 0.645 | 0.312 | 0.288 | 0.296 | 0.267 | 0.952 | 0.7 | 0.969 | 0.808
NCI-H441 | 0.942 | 0.886 | 0.867 | 0.862 | 0.787 | 0.708 | 0.771 | 0.636 | 0.87 | 0.884 | 1.18 | 0.938 | 0.633 | 0.508 | 0.495 | 0.458 | 1.14 | 0.936 | 1.19 | 0.947
HOP-62 | 0.681 | 0.65 | 0.704 | 0.839 | 0.882 | 1.05 | 0.741 | 1.05 | 1.13 | 1.07 | 1.13 | 1.22 | 0.972 | 0.963 | 0.869 | 1 | 1.05 | 1.02 | 1.11 | 1.16
RERF-LC-KJ | 0.458 | 0.426 | 0.443 | 0.406 | 0.811 | 0.766 | 0.812 | 0.926 | 0.879 | 0.777 | 0.864 | 0.869 | 0.877 | 0.857 | 0.932 | 0.956 | 1.04 | 0.903 | 0.995 | 0.959

Source: the supplement of paper PMC10307832
